Source: patent US7312333B2, “Retroviral protease inhibitors” (Pharmacia Corporation, priority 1992, dated 2007)
Like-named read-outs stand apart in the source and are kept apart here.

Columns and labels:
CEM cells = experiment: CEM cell assay: intrinsic toxicity of test compound in uninfected cells (MTT); assay type: cell-based
Method: (§1) The effectiveness of the compounds tested in Part A was also determined in a CEM cell assay. The HIV inhibition assay method of acutely infected cells is an automated tetrazolium based colorimetric assay essentially that reported by Pauwles et al, J. Virol. Methods 20, 309-321 (1988). Assays were performed in 96-well tissue culture plates. CEM cells, a CD4^+ cell line, were grown in RPMI-1640 medium (Gibco) supplemented with a 10% fetal-calf serum and were then treated with polybrene (2 μg/mL). An 80 μL volume of medium containing 1×10^4 cells was dispensed into each well of the tissue culture plate. To each well was added a 100 μL volume of test compound dissolved in tissue culture medium (or medium without test compound as a control) to achieve the desired final concentration and the cells were incubated at 37° C. For 1 hour. A frozen culture of HIV-1 was diluted in culture medium to a concentration of 5×10^4 TCID50 per mL (TCID50=the dose of virus that infects 50% of cells in tissue culture), and a 20 μL volume of the virus sample (containing 1000 TCID50 of virus) was added to wells containing test compound and to wells containing only medium (infected control cells). Several wells received culture medium without virus (uninfected control cells). Likewise, the intrinsic toxicity of the test compound was determined by adding medium without virus to several wells containing test compound. In summary, the tissue culture plates contained the following experiments:
(§2) In experiments 2 and 4, the final concentrations of test compounds were 1, 10, 100 and 500 μg/mL. Either azidothymidine (AZT) or dideoxyinosine (ddI) was included as a positive drug control. […] DMSO was added to all control wells at an appropriate concentration.
(§3) Following the addition of virus, cells were incubated at 37° C. in a humidified, 5% CO2 atmosphere for 7 days. Test compounds could be added on days 0, 2 and 5 if desired. On day 7, post-infection, the cells in each well were resuspended and a 100 μL sample of each cell suspension was removed for assay. A 20 μL volume of a 5 mg/mL solution of 3-(4,5-dimethylthiazol-2-yl)-2,5-diphenyltetrazolium bromide (MTT) was added to each 100 μL cell suspension, and the cells were incubated for 4 hours at […] in a 5% CO2 environment. […] To each sample was added 100 μL of 10% sodium dodecylsulfate in 0.01 N HCl to lyse the cells, and samples were incubated overnight. The absorbance at 590 nm was determined for each sample using a Molecular Devices microplate reader. Absorbance values for each set of wells is compared to assess viral control infection, uninfected control cell response as well as test compound by cytotoxicity and antiviral efficacy.
(§4) The calculated EC^50 (effective concentration 50%, i.e., the concentration at which the inhibitor compound reduces cytopathicity by 50%) and TD^50 (toxic dose 50%, i.e., the concentration at which the inhibitor compound reduces cellular viability by 50%) values for these compounds are also shown in Table 1.

HIV protease = molecular target: T1, HIV protease (Human immunodeficiency virus type 1 group M subtype B, UniProt P04585); experiment: HIV protease enzyme assay (fluorogenic substrate 2-aminobenzoyl-Ile-Nle-Phe(p-NO2)-Gln-ArgNH2); assay type: biochemical; settings: for inhibition at 10 µM: at a concentration of 10 micromolar
T1 construct: HIV protease is diluted in the assay buffer to a final enzyme concentration of 12.3 nanomolar, based on a molecular weight of 10,780
Method: The compounds of the present invention are effective HIV protease inhibitors. […] The calculated IC50 (inhibiting concentration 50%, i.e., the concentration at which the inhibitor compound reduces enzyme activity by 50%) values are shown in Table 1. The enzyme method is described below. The substrate is 2-aminobenzoyl-Ile-Nle-Phe(p-NO2)-Gln-ArgNH2. The positive control is MVT-101 (Miller, M. et al, Science, 246, 1149 (1989)] The assay conditions are as follows:
Assay buffer: 20 mM sodium phosphate, pH 6.4
The above described substrate is dissolved in DMSO, then diluted 10 fold in assay buffer. Final substrate concentration in the assay is 80 μM.
HIV protease is diluted in the assay buffer to a final enzyme concentration of 12.3 nanomolar, based on a molecular weight of 10,780.
The final concentration of DMSO is 14% and the final concentration of glycerol is 18%. The test compound is dissolved in DMSO and diluted in DMSO to 10× the test concentration; 10 μL of the enzyme preparation is added, the materials mixed and then the mixture is incubated at ambient temperature for 15 minutes. The enzyme reaction is initiated by the addition of 40 μL of substrate. The increase in fluorescence is monitored at 4 time points (0, 8, 16 and 24 minutes) at ambient temperature. Each assay is carried out in duplicate wells.

HIV-1 = experiment: CEM cell assay: HIV inhibition in acutely infected cells (MTT colorimetric); assay type: cell-based; settings: HIV-1 infected CEM cells, 7 days, concentration reducing cytopathicity by 50%, read-out: Antiviral Activity in Cell Culture (EC50)
Method: as §1, §2, §3, §4

[1] = CEM cell assay: intrinsic toxicity of test compound in uninfected cells (MTT); assay type: cell-based; settings: human, uninfected CEM cells (CD4+ cell line); CEM cells without virus, 7 days, concentration reducing cellular viability by 50% (TD50)
Method: as §1, §2, §3, §4

[2] = substrate 80 μM, HIV protease 12.3 nanomolar, pH 6.4, ambient temperature, read-out: Enzyme Inhibition (IC50)
[3] = Human immunodeficiency virus 1, CCRF-CEM, 168 h

Work on “3-Isoquinolinecarboxamide, N-(1,1-dimethylethyl)decahydro-2-[2-hydroxy-3-[[2-methyl-3-(methylsulfonyl)-1-oxopropyl]amino]-4-phenylbutyl]-, [3S-[2[2S*,3R*(R*)], 3α,4aβ,8aβ]] [Example 6]” yielded an IC50 (CEM cells; CEM cells without virus, 7 days, concentration reducing cellular viability by 50% (TD50), read-out: Cell Toxicity (IC50)) of 2000 nM, an IC50 (HIV protease; [2]) of 2 nM and an EC50 (HIV-1) of 52 nM.

Molecule COc1ccc(COC(=O)NC[C@@H](C)C(=O)N[C@@H](Cc2ccccc2)[C@H](O)CN2C[C@H]3CCCC[C@H]3C[C@H]2C(=O)NC(C)(C)C)cc1 (relative stereo) [Example 4, carbamic acid, [3-[[3-[3-[[(1,1-dimethylethyl)-amino]carbonyl]octahydro-2(1H)-isoquinolinyl]-2-hydroxy-1-(phenyl-methyl)propyl]amino]-2-methyl-3-oxopropyl]-,(4-methoxyphenyl)methylester,[3S-[2[1R*(S*),2S*], 3α,4aβ,8aβ]]] has an inhibition at 10 µM (HIV protease) of 3 to 100%.

Molecule C[C@H](CS(C)(=O)=O)C(=O)N[C@@H](Cc1ccccc1)[C@H](O)CN1C[C@H]2CCCC[C@H]2C[C@H]1C(=O)NC(C)(C)C (relative stereo) [Example 6, 3-Isoquinolinecarboxamide, N-(1,1-dimethylethyl)decahydro-2-[2-hydroxy-3-[[2-methyl-3-(methylsulfonyl)-1-oxopropyl]amino]-4-phenylbutyl]-, [3S-[2[2S*,3R*(R*)], 3α,4aβ,8aβ]]] has an inhibition at 10 µM (HIV protease) of 3 to 100%.

CC(C)(C)NC(=O)[C@@H]1C[C@@H]2CCCC[C@@H]2CN1C[C@@H](O)[C@H](Cc1ccccc1)NC(=O)C[C@H](NC(=O)c1ccc2ccccc2n1)C(N)=O (relative stereo) [Example 10, butanediamide, N^4-[3-[3-[[(1,1-dimethylethyl)-amino]carbonyl]octahydro-2(1H)-isoquinolinyl]-2-hydroxy-1-(phenyl-methyl)propyl]-2-[(2-quinolinylcarbonyl)amino]-, [3S[2[1R*(R*),2S*], 3α,4aβ,8aβ]]] gave an IC50 at 7 days [1] of 5000 nM, an IC50 (HIV protease) of 9 nM and an inhibition at 10 µM (HIV protease) of 3 to 100%. It also gave an EC50 (HIV-1; [3]) of 37 nM.

For C[C@@H](C(=O)N[C@@H](Cc1ccccc1)[C@H](O)CN1C[C@H]2CCCC[C@H]2C[C@H]1C(=O)NC(C)(C)C)C(C)(C)C(N)=O (relative stereo) [Example 12, Butanamide, 4-[[3-[3-[[(1,1-dimethylethyl)-amino]carbonyl]octahydro-2 (1H)-isoquinolinyl]-2-hydroxy-1-(phenylmethyl)propyl]amino]-2,2,3-trimethyl-4-oxo-, [3S-[2[1R*(S*),2S*], 3α, 4aβ, 8 aβ]]], the IC50 at 7 days [1] was 59000 nM, the IC50 (HIV protease; [2]) was 9 nM and the EC50 (HIV-1; [3]) was 98 nM.

Molecule C[C@@H](C(=O)N[C@@H](Cc1ccccc1)[C@H](O)CN1C[C@H]2CCCC[C@H]2C[C@H]1C(=O)NC(C)(C)C)C(C)(C)C(=O)O (relative stereo) [Example 12C, butanoic acid, 4-[[3-[3-[[(1,1-dimethylethyl)amino]carbonyl]octahydro-2(1H)-isoquinolinyl]-2-hydroxy-1-(phenylmethyl)propyl]amino]-2,2,3-trimethyl-4-oxo-, [3S-[2[1R*(S*),2S*], 3α,4aβ, 8aβ]]-] has an IC50 at 7 days [1] of 50000 nM, an IC50 (HIV protease; [2]) of 23 nM and an EC50 (HIV-1; [3]) of 184 nM.

Work on COc1ccc(COC(=O)NCC(C)C(=O)NC(Cc2ccccc2)C(O)CN2CC3CCCCC3CC2C(=O)NC(C)(C)C)cc1 (stereo not drawn) [Example 4, carbamic acid, [3-[[3-[3-[[(1,1-dimethylethyl)-amino]carbonyl]octahydro-2(1H)-isoquinolinyl]-2-hydroxy-1-(phenyl-methyl)propyl]amino]-2-methyl-3-oxopropyl]-,(4-methoxyphenyl)methylester,[3S-[2[1R*(S*),2S*], 3α,4aβ,8aβ]]] yielded an IC50 (CEM cells) of 58000 nM, an IC50 (HIV protease; [2]) of 7 nM and an EC50 (HIV-1) of 42 nM.

C[C@@H](C(=O)N[C@@H](Cc1ccccc1)[C@H](O)CN1C[C@H]2CCCC[C@H]2C[C@H]1C(=O)NC(C)(C)C)C(C)(C)C(N)=O [Example 12, Butanamide, 4-[[3-[3-[[(1,1-dimethylethyl)-amino]carbonyl]octahydro-2 (1H)-isoquinolinyl]-2-hydroxy-1-(phenylmethyl)propyl]amino]-2,2,3-trimethyl-4-oxo-, [3S-[2[1R*(S*),2S*], 3α, 4aβ, 8 aβ]]] showed an inhibition at 10 µM (HIV protease) of 3 to 100%.

Work on C[C@@H](C(=O)N[C@@H](Cc1ccccc1)[C@H](O)CN1C[C@H]2CCCC[C@H]2C[C@H]1C(=O)NC(C)(C)C)C(C)(C)C(=O)O [Example 12C, butanoic acid, 4-[[3-[3-[[(1,1-dimethylethyl)amino]carbonyl]octahydro-2(1H)-isoquinolinyl]-2-hydroxy-1-(phenylmethyl)propyl]amino]-2,2,3-trimethyl-4-oxo-, [3S-[2[1R*(S*),2S*], 3α,4aβ, 8aβ]]-] yielded an inhibition at 10 µM (HIV protease) of 3 to 100%.
